Experiments:
Settings in all cases: compound and its salts
[1] = biological target: T1, recombinant human α1D receptor (Homo sapiens, UniProt P25100); assay: Adrenergic α1D [3H]-prazosin binding, HEK293 membranes
T1 construct: expressed in transfected cells; host or cells: HEK293 cells (membranes)
T1 sequence (P25100 1-572): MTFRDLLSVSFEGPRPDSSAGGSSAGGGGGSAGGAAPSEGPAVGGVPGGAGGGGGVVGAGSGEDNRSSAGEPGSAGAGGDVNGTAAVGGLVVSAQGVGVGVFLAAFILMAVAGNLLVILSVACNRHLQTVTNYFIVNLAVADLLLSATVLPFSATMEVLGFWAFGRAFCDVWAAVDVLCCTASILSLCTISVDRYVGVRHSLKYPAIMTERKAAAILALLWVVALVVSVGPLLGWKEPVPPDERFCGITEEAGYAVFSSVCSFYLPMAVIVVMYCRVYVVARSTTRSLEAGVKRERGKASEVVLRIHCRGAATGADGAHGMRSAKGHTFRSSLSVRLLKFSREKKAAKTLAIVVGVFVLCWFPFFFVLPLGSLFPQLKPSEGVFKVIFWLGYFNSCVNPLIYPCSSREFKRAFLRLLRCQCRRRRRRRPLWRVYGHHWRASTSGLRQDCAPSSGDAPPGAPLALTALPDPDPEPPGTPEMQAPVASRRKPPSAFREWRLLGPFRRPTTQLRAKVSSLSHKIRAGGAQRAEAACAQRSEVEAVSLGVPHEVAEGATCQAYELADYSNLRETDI
Protocol: Membranes were prepared from human embryonic kidney 293 (HEK293) cells expressing recombinant human α1D receptor. These were diluted in Assay Buffer (50 mM HEPES, 1 mM EDTA, 0.1% gelatin, pH 7.4) to provide a final concentration of membranes that gave a clear window between maximum and minimum specific binding.
(§1) Assays were performed in U-bottomed 96-well polypropylene plates. 10 μL [^3H]-prazosin (0.3 nM final concentration) and 10 μL of Compound A (10× final concentration) were added to each test well. For each assay plate 8 replicates were obtained for [^3H]-prazosin binding in the presence of 10 μL vehicle (10% (v/v) DMSO in Assay Buffer; defining maximum binding) or 10 μL BMY7378 (10 μM final concentration; defining non-specific binding (NSB)). Membranes were then added to achieve a final volume of 100 μL. […] Five washes with 250 μL wash buffer (50 mM HEPES, 1 mM EDTA, pH 7.4) were performed at 4° C. to remove unbound radioactivity. […] The plates were sealed (TopSeal A) and filter-bound radioactivity was measured with a scintillation counter (TopCount, Packard BioScience) using a 3-minute counting protocol.
(§2) Total specific binding (B0) was determined by subtracting the mean NSB from the mean maximum binding. […]

[2] = biological target: T2, recombinant human Dopamine Subtype D2s receptors (Homo sapiens, UniProt P14416); assay: Dopamine D2 [3H]-spiperone binding
T2 construct: purchased Perkin Elmer
T2 sequence (P14416 1-414 isoform P14416-2): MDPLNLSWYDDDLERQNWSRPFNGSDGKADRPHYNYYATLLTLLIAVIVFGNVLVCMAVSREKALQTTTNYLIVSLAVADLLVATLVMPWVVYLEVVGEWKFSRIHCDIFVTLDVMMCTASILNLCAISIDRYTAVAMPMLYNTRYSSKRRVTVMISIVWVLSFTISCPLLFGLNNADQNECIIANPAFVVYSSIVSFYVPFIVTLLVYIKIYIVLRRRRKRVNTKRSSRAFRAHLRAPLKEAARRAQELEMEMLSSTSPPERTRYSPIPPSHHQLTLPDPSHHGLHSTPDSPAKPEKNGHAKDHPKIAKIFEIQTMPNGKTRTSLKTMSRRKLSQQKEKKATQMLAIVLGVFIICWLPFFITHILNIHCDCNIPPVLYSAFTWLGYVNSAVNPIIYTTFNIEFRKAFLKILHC
Protocol: (§3) Membranes containing recombinant human Dopamine Subtype D2s receptors were obtained from Perkin Elmer. These were diluted in Assay Buffer (50 mM HEPES, 1 mM EDTA, 120 mM NaCl, 0.1% gelatin, pH 7.4) to provide a final concentration of membranes that gave a clear window between maximum and minimum specific binding.
Assays were performed in U-bottomed 96-well polypropylene plates. 30 PL [^3H]-spiperone (0.16 nM final concentration) and 30 μL of Compound A (10× final concentration) were added to each test well. For each assay plate 8 replicates were obtained for [^3H]-spiperone binding in the presence of 30 PL vehicle (10% (v/v) DMSO in Assay Buffer; defining maximum binding) or 30 μL Haloperidol (10 PM final concentration; defining non-specific binding (NSB)). Membranes were then added to achieve a final volume of 300 μL. […] Five washes with 250 μL wash buffer (50 mM HEPES, 1 mM EDTA, 120 mM NaCl, pH 7.4) were performed at 4° C. to remove unbound radioactivity. […] The plates were sealed (TopSeal A) and filter-bound radioactivity was measured with a scintillation counter (TopCount, Packard BioScience) using a 3-minute counting protocol.
as §2

[3] = biological target: T3, recombinant human adrenergic beta 1 receptors (Homo sapiens, UniProt P08588); assay: Adrenergic β1 [125I]-Iodocyanopindolol binding
T3 construct: purchased Euroscreen
T3 sequence (P08588 whole entry): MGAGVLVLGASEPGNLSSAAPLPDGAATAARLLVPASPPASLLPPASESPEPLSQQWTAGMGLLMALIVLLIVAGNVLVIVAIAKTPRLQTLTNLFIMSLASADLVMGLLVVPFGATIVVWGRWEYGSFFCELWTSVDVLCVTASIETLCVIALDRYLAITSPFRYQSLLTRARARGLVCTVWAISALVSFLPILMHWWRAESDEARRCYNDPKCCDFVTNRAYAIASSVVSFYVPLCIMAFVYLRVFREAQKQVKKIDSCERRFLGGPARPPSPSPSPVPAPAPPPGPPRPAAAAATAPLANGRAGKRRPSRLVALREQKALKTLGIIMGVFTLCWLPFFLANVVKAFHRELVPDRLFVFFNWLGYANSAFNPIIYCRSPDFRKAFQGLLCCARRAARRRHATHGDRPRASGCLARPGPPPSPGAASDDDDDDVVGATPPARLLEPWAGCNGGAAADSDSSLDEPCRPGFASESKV
Protocol: as §3, with “adrenergic beta 1” for “Dopamine Subtype D2s”, “Euroscreen.” for “Perkin Elmer.”
as §1, with “PL [1251]-Iodocyanopindolol (0.036” for “μL [^3H]-prazosin (0.3”, “[^125]-Iodocyanopindolol” for “[^3H]-prazosin”, “Propranolol” for “BMY7378”, “EDTA, 120 mM NaCl,” for “EDTA,”
as §2

CCN(CC)CCN(CCNCCc1ccc(O)c2[nH]c(=O)sc12)C(=O)CCOCCc1cccc2ccccc12 [N-[2-(Diethylamino)ethyl]-N-(2-{[2-(4-hydroxy-2-oxo-2,3-dihydro-1,3-benzothiazol-7-yl)ethyl]amino}ethyl)-3-[2-(1-naphthyl)ethoxy]propanamide]
≥ 10 fold: selectivity of β2 adrenoceptor agonism over adrenergic α1D [1] | selectivity of β2 adrenoceptor agonism over dopamine D2 [2] | selectivity of β2 adrenoceptor agonism over adrenergic β1 [3]

— patent publication US20080242649A1, “New Combination 665” (priority 2007, published 2008)
